Results taken from publication PMC6225228, “Design, Synthesis and Evaluation of N-pyrazinylbenzamides as Potential Antimycobacterial Agents” (Molecules : A Journal of Synthetic Chemistry and Natural …, 2018).
In brackets after ≈: the same amount, converted by molar mass. Read-outs that look alike come from different tables or passages of the source.

Assays:
[1] = system: Mycobacterium tuberculosis H37Rv CNCTC My 331/88 (ATCC 27294); experiment: Antimycobacterial microdilution MABA, M. tuberculosis; type: cell-based; conditions: for MIC: Mycobacterium tuberculosis
[2] = system: M. kansasii CNCTC My 235/80 (ATCC 12478); experiment: Antimycobacterial microdilution MABA, M. kansasii; type: cell-based, Mycobacterium kansasii; conditions: Mycobacterium kansasii
[3] = system: M. avium ssp. avium CNCTC My 80/72 (ATCC 15769); experiment: Antimycobacterial microdilution MABA, M. avium; type: cell-based, Mycobacterium avium; conditions: for MIC: Mycobacterium avium
[4] = system: Mycobacterium smegmatis CCM 4622 (ATCC 607); experiment: Antimycobacterial microdilution, M. smegmatis; type: cell-based; conditions: Mycolicibacterium smegmatis, read-out: M. smeg. ATCC 607 MIC
[5] = system: Staphylococcus aureus CCM 4516/08; experiment: Antibacterial microdilution broth, SA; type: cell-based; conditions: Staphylococcus aureus
[6] = system: Staphylococcus aureus H 5996/08 methicillin resistant; experiment: microbe, parasite or virus in culture; type: cell-based; conditions: Staphylococcus aureus, MRSA, read-out: MIC MRSA
[7] = system: Staphylococcus epidermidis H 6966/08; experiment: Antibacterial microdilution broth, SE; type: cell-based; conditions: Staphylococcus epidermidis, read-out: MIC SE
[8] = system: Enterococcus sp. J 14365/08; experiment: Antibacterial microdilution broth, EF; type: cell-based; conditions: Enterococcus, read-out: MIC EF
[9] = system: Escherichia coli CCM 4517; experiment: Antibacterial microdilution broth, EC; type: cell-based; conditions: Escherichia coli, read-out: MIC EC
[10] = system: Pseudomonas aeruginosa CCM 1961; experiment: Antibacterial microdilution broth, PA; type: cell-based; conditions: Pseudomonas aeruginosa, read-out: MIC PA
[11] = system: Candida albicans ATCC 44859; experiment: Antifungal microdilution broth, CA; type: cell-based; conditions: Candida albicans, read-out: MIC CA
Candida tropicalis 156 = experiment: Antifungal microdilution broth, CT; type: cell-based; conditions: read-out: MIC CT
Candida krusei E28 = experiment: Antifungal microdilution broth, CK; type: cell-based; conditions: Pichia kudriavzevii, read-out: MIC CK
Candida glabrata 20/I = experiment: Antifungal microdilution broth, CG; type: cell-based; conditions: Nakaseomyces glabratus, 20/I, read-out: MIC CG
Trichosporon asahii 1188 = experiment: Antifungal microdilution broth, TA; type: cell-based; conditions: read-out: MIC TA
[12] = system: Aspergillus fumigatus 231; experiment: Antifungal microdilution broth, AF; type: cell-based; conditions: read-out: MIC AF
[13] = system: Lichtheimia corymbifera 272; experiment: Antifungal microdilution broth, LC; type: cell-based; conditions: read-out: MIC LC
[14] = system: Trichophyton interdigitale 445; experiment: Antifungal microdilution broth, TI; type: cell-based; conditions: read-out: MIC TI
[15] = read-out: Mtb H37Rv ATCC 27294 MIC, Middlebrook 7H9 with OADC growth supplement, pH = 6.6, MABA
[16] = ATCC12478, pH 6.6, read-out: M. kans. ATCC 12478 MIC, Middlebrook 7H9 with OADC, pH 6.6, MABA
[17] = ATCC15769, pH 6.6, read-out: M. avium ATCC 15769 MIC
[18] = CCM4516, 24 h, read-out: MIC SA, 24 h
[19] = CCM4516, 48 h, read-out: MIC SA, 48 h
[20] = Trichosporon asahii, 1188, 24 h
[21] = Trichosporon asahii, 1188, 48 h
[22] = Aspergillus fumigatus, 231, 24 h
[23] = Aspergillus fumigatus, 231, 48 h
[24] = Lichtheimia corymbifera, 272, 24 h
[25] = Lichtheimia corymbifera, 272, 48 h
[26] = Trichophyton interdigitale, 445, 72 h
[27] = Trichophyton interdigitale, 445, 120 h
[28] = Middlebrook 7H9 with OADC growth supplement, pH = 6.6, MABA
[29] = Middlebrook 7H9 with OADC growth supplement, pH = 6.6, MABA, read-out: Mtb H37Rv ATCC 27294 MIC
[30] = ATCC12478, Middlebrook 7H9 with OADC, pH 6.6, MABA, read-out: M. kans. ATCC 12478 MIC
[31] = ATCC15769, Middlebrook 7H9 with OADC, pH 6.6, MABA, read-out: M. avium ATCC 15769 MIC
[32] = Middlebrook 7H9 with OADC, resazurin

Which results are given for `CC(=O)Oc1ccc(C(=O)Nc2cnccn2)cc1` [Compound 1d-Ac]?
MIC [1, 15]: > 100 µg/mL; MIC [2, 16]: > 100 µg/mL; MIC [3, 17]: > 100 µg/mL; MIC [4]: ≥ 500 µg/mL; MIC [5, 18]: > 500 µM; MIC [5, 19]: > 500 µM; MIC ([6]; 24 h): > 500 µM; MIC ([6]; 48 h): > 500 µM; MIC ([7]; H6966/08, 24 h): > 500 µM; MIC ([7]; H6966/08, 48 h): > 500 µM; MIC ([8]; SP.J14365/08, 24 h): > 500 µM; MIC ([8]; SP.J14365/08, 48 h): > 500 µM; MIC ([9]; CCM4517, 24 h): > 500 µM; MIC ([9]; CCM4517, 48 h): > 500 µM; MIC ([10]; CCM1961, 72 h): > 500 µM; MIC ([10]; CCM1961, 120 h): > 500 µM; MIC ([11]; ATCC44859, 24 h): > 500 µM; MIC ([11]; ATCC44859, 48 h): > 500 µM; MIC (Candida tropicalis 156; Candida tropicalis, 156, 24 h): > 500 µM; MIC (Candida tropicalis 156; Candida tropicalis, 156, 48 h): > 500 µM; MIC (Candida krusei E28; E28, 24 h): > 500 µM; MIC (Candida krusei E28; E28, 48 h): > 500 µM; MIC (Candida glabrata 20/I; 24 h): > 500 µM; MIC (Candida glabrata 20/I; 48 h): > 500 µM; MIC (Trichosporon asahii 1188; [20]): > 500 µM; MIC (Trichosporon asahii 1188; [21]): > 500 µM; MIC [12, 22]: > 500 µM; MIC [12, 23]: > 500 µM; MIC [13, 24]: > 500 µM; MIC [13, 25]: > 500 µM; MIC [14, 26]: > 500 µM; MIC [14, 27]: > 500 µM; melting point: 147.4 to 149.4 °C

With `COc1ccccc1C(=O)Nc1cnccn1` [Compound 1e] as the molecule, how does the “Mtb H37Rv ATCC 27294 MIC” value [1, 28] read?
The value was >100 µg/mL.

And the MIC [1, 15]?
The MIC was > 100 µg/mL.

What about the MIC [2, 16] of the same molecule?
Its MIC is 100 µg/mL (≈ 436 µM).

And the “M. avium ATCC 15769 MIC” value ([3]; Middlebrook 7H9 with OADC, pH 6.6, MABA)?
Its value is >100 µg/mL.

And the MIC [3, 17]?
Its MIC is > 100 µg/mL.

What about the MIC [4] of the same molecule?
Its MIC is 125 µg/mL (≈ 545 µM).

And the MIC [5, 18]?
The MIC was > 500 µM.

And the MIC [5, 19]?
Its MIC is > 500 µM.

What about the MIC ([6]; 24 h) of the same molecule?
Its MIC is > 500 µM.

And the MIC ([6]; 48 h)?
Its MIC is > 500 µM.

And the MIC ([7]; H6966/08, 24 h)?
Its MIC is > 500 µM.

What about the MIC ([7]; H6966/08, 48 h) of the same molecule?
Its MIC is > 500 µM.

What about the MIC ([8]; SP.J14365/08, 24 h) of the same molecule?
Its MIC is > 500 µM.

What about the MIC ([8]; SP.J14365/08, 48 h) of the same molecule?
Its MIC is > 500 µM.

What about the MIC ([9]; CCM4517, 24 h) of the same molecule?
Its MIC is > 500 µM.

What about the MIC ([9]; CCM4517, 48 h) of the same molecule?
The MIC was > 500 µM.

And the MIC ([10]; CCM1961, 72 h)?
The MIC was > 500 µM.

And the MIC ([10]; CCM1961, 120 h)?
Its MIC is > 500 µM.

What about the MIC ([11]; ATCC44859, 24 h) of the same molecule?
The MIC was > 500 µM.

What about the MIC ([11]; ATCC44859, 48 h) of the same molecule?
Its MIC is > 500 µM.

What about the MIC (Candida tropicalis 156; Candida tropicalis, 156, 24 h) of the same molecule?
Its MIC is > 500 µM.

And the MIC (Candida tropicalis 156; Candida tropicalis, 156, 48 h)?
The MIC was > 500 µM.

What about the MIC (Candida krusei E28; E28, 24 h) of the same molecule?
The MIC was > 500 µM.

And the MIC (Candida krusei E28; E28, 48 h)?
The MIC was > 500 µM.

And the MIC (Candida glabrata 20/I; 24 h)?
Its MIC is > 500 µM.

What about the MIC (Candida glabrata 20/I; 48 h) of the same molecule?
Its MIC is > 500 µM.

And the MIC (Trichosporon asahii 1188; [20])?
Its MIC is > 500 µM.

What about the MIC (Trichosporon asahii 1188; [21]) of the same molecule?
Its MIC is > 500 µM.

And the MIC [12, 22]?
The MIC was > 500 µM.

What about the MIC [12, 23] of the same molecule?
Its MIC is > 500 µM.

And the MIC [13, 24]?
The MIC was > 500 µM.

What about the MIC [13, 25] of the same molecule?
The MIC was > 500 µM.

And the MIC [14, 26]?
Its MIC is > 500 µM.

What about the MIC [14, 27] of the same molecule?
Its MIC is > 500 µM.

What about the melting point of the same molecule?
Its melting point is 100.3 to 102.4 °C.

With `COc1ccc(C(=O)Nc2cncc(Cl)n2)cc1` [Compound 3g] as the molecule, how does the MIC [1, 29] read?
Its MIC is > 100 µg/mL.

And the MIC [2, 30]?
The MIC was > 100 µg/mL.

What about the MIC [3, 31] of the same molecule?
Its MIC is > 100 µg/mL.

What about the MIC [4, 32] of the same molecule?
The MIC was ≥ 500 µg/mL.

And the melting point?
Its melting point is 196.9 to 198.8 °C.

What does the source list for `Cc1ccc(C(=O)Nc2cncc(Cl)n2)cc1` [Compound 3h]?
Mtb H37Rv ATCC 27294 MIC [1, 28]: >100 µg/mL; MIC [1, 29]: > 100 µg/mL; MIC [2, 30]: > 100 µg/mL; MIC [3, 31]: > 100 µg/mL; MIC [4, 32]: ≥ 500 µg/mL; melting point: 169.1 to 170 °C

For `O=C(Nc1cncc(Cl)n1)c1ccc(Cl)cc1` [Compound 3l], which “Mtb H37Rv ATCC 27294 MIC” value [1, 28] is on record?
Its value is >100 µg/mL.

And the MIC [1, 29]?
The MIC was > 100 µg/mL.

And the MIC [2, 30]?
Its MIC is > 100 µg/mL.

And the MIC [3, 31]?
The MIC was > 100 µg/mL.

What about the MIC [4, 32] of the same molecule?
Its MIC is ≥ 500 µg/mL.

What about the melting point of the same molecule?
Its melting point is 193.8 to 194.7 °C.
